{"source": "paper PMC3560421", "about": "(European journal of medicinal chemistry, 2012)", "key": {"[1]": {"tested_on": "poly(dA-dT)n", "test": "DNA thermal melting", "type": "binding", "details": "thermal melting with poly(dA-dT); compared with DB766"}, "[2]": {"tested_on": "intracellular Leishmania amazonensis", "test": "Efficacy against intracellular Leishmania amazonensis parasites", "type": "cell-based", "details": "read-out: IC50 L. a., intracellular L. amazonensis"}, "[3]": {"test": "Preliminary in vivo toxicity evaluation in uninfected animals", "parameters": "species or system mice", "details": "for Adverse reaction after dosing: mouse, in vivo, ip, 30 mg/kg"}, "[4]": {"tested_on": "intracellular Leishmania amazonensis", "details": "read-out: IC50 L. a.; cited from earlier work"}, "[5]": {"tested_on": "intracellular Leishmania donovani", "details": "read-out: IC50 L. d.; cited from earlier work"}, "[6]": {"tested_on": "Leishmania", "details": "read-out: IC50 value (antileishmanial, in vitro); cited from earlier work"}}, "note": "Like-named read-outs stand apart in the source and are kept apart here."}
{"smiles": "Cl.Cl.N=C(Nc1ccccn1)c1ccc(C(=N)Nc2ccccn2)cc1", "note": "[compound 6, N ^1,N ^4-di(pyridin-2-yl)terephthalimidamide hydrochloride]", "values": [{"measurement": "DNA binding (in words)", "setting": "[1]", "value": "essentially do not bind to DNA"}]}
{"smiles": "Cl.Cl.N=C(Nc1ccc(Oc2ccc(NC(=N)c3ccccn3)cc2)cc1)c1ccccn1", "note": "[9c, N,N'-(oxybis(4,1-phenylene))dipicolinimidamide hydrochloride]", "values": [{"measurement": "IC50", "setting": "[2]", "value": "< 1000", "unit": "nM"}, {"measurement": "Toxicity to mice (in words)", "setting": "[3]", "value": "quite toxic to mice"}, {"measurement": "Adverse reaction after dosing", "setting": "[3]", "value": "severe tremors"}]}
{"smiles": "CC(C)Oc1cc(NC(=N)c2ccccn2)ccc1-c1ccc(NC(=N)c2ccccn2)cc1OC(C)C.Cl.Cl", "note": "[compound 13, N,N'-(2,2'-di-isopropoxy-[1,1'-biphenyl]-4,4'-diyl)dipicolinimidamide hydrochloride]", "values": [{"measurement": "DNA binding (in words)", "setting": "[1]", "value": "essentially does not bind to DNA"}, {"measurement": "Toxicity to mice (in words)", "setting": "[3]", "value": "quite toxic to mice"}, {"measurement": "Adverse reaction after dosing", "setting": "[3]", "value": "severe tremors"}]}
{"smiles": "Cl.Cl.N=C(Nc1ccc(NC(=N)c2ncccn2)cc1)c1ncccn1", "note": "[3b, N,N'-(1,4-phenylene)dipyrimidine-2-carboximidamide hydrochloride]", "values": [{"measurement": "DNA binding (in words)", "setting": "[1]", "value": "essentially do not bind to DNA"}]}
{"smiles": "Cl.Cl.N=C(Nc1ccc(NC(=N)c2ccccn2)cc1)c1ccccn1", "note": "[3a, N,N'-(1,4-phenylene)dipicolinimidamide hydrochloride]", "values": [{"measurement": "DNA binding (in words)", "setting": "[1]", "value": "essentially do not bind to DNA"}]}
{"smiles": "Cl.Cl.N=C(Nc1ccc(-c2ccc(NC(=N)c3ccccn3)cc2)cc1)c1ccccn1", "note": "[9a, N,N'-([1,1'-biphenyl]-4,4'-diyl)dipicolinimidamide hydrochloride]", "values": [{"measurement": "IC50", "setting": "[2]", "value": "< 1000", "unit": "nM"}, {"measurement": "DNA binding (in words)", "setting": "[1]", "value": "binds with the same affinity as DB766"}, {"measurement": "Toxicity to mice (in words)", "setting": "[3]", "value": "quite toxic to mice"}, {"measurement": "Adverse reaction after dosing", "setting": "[3]", "value": "severe tremors"}]}
{"smiles": "CC(C)Oc1cc(NC(=N)c2ccccn2)ccc1-c1ccc(-c2ccc(NC(=N)c3ccccn3)cc2OC(C)C)o1", "note": "[DB766]", "values": [{"measurement": "IC50", "setting": "[4]", "value": 87, "unit": "nM"}, {"measurement": "IC50", "setting": "[5]", "value": 36, "unit": "nM"}, {"measurement": "IC50", "setting": "[6]", "value": "< 100", "unit": "nM"}]}
